“Also recorded” adds a separate entry of the source.
Tests used:
[1] = tested on: U-87MG human glioblastoma xenografted into nude mice; test: Experiment 2: growth of s.c. U-87MG xenografts, with BN receptor blockade; type: in vivo, human tumour in male athymic nude mice
Description: Human glioblastoma cell line U-87MG was obtained from American Type Culture Collection (Manassas, VA, USA) and cultured as described ([Pinski et al, 1994]). Male athymic (Ncr nu/nu) nude mice, approximately 6-weeks-old on arrival, were obtained from the National Cancer Institute (Frederick Cancer Research and Development Center, Frederick, MD, USA), and housed in laminar air-flow cabinets under pathogen-free conditions with a 12 h light/12 h dark schedule, and fed autoclaved standard chow and water ad libitum. Xenografts were initiated by s.c. injection of 12×10^6 U-87MG cells into the right flanks of five male nude mice. Tumours resulting after 2 weeks were aseptically dissected, mechanically minced, and 3-mm^3 pieces of tumour tissue were transplanted s.c. with a trocar needle. The take rate was 100%. All experiments were performed in accordance with institutional ethical guidelines of animal care and were essentially in agreement with [UKCCCR guidelines (1998)] for the welfare of animals in experimental neoplasia.
Experiment 2 was started when U-87MG tumours had grown to 70–84 mm^3 in volume. The animals were divided into the following treatment groups: group 1 (10 mice), control, vehicle solution; group 2 (10 mice), analogue AN-215; group 3 (five mice), unconjugated mixture of the cytotoxic radical AN-201 and BN antagonist RC-3095. All compounds were injected i.v. at 150 nmol kg^−1 of BW on days 1, 10, and 17. In addition, one group of tumour-bearing mice received an i.v. injection of 200 μg of BN antagonist RC-3095 15 min before each administration of AN-215 at a dose of 150 nmol kg^−1 of BW on days 1, 10 and 17 as in the case of group 2. The experiment was terminated on day 20 as described above.
Data are expressed as mean±s.e. Differences between mean values were evaluated by two-tailed Student's t-test, P<0.05 being considered significant.

[2] = tested on: BN receptors on membrane preparations from U-87MG tumours; test: 125I-[Tyr4]BN binding characteristics (Kd, Bmax) of BN receptors on U-87MG tumour membranes; parameters: species or system human; details: AN-215-treated vs control
Description: (§1) Binding characteristics of BN receptors on membrane preparations from U-87MG tumours were determined by ligand competition assays using ^125I-labelled [Tyr^4]BN, as reported earlier ([Halmos and Schally, 1997]). […] IC50 value was calculated with a computerized curve fitting programme and is defined as the concentration of AN-215 causing a 50% inhibition of ^125I-[Tyr^4]BN binding.

[3] = molecular target: BN/GRP receptor on U-87MG tumour membranes; test: Displacement of 125I-[Tyr4]BN binding (radioreceptor assay) on U-87MG tumour membranes; parameters: species or system human
Description: as §1

[4] = RC-3095 200 μg/mouse i.v. 15 min before AN-215 150 nmol kg^-1 days 1, 10, 17

Gln-Trp-Ala-Val-Gly-His-Leu-ψ(CH2-NH)-Leu-NH2 [AN-215]
Tumour doubling time ([1]; 150 nmol kg^-1 i.v. days 1, 10, 17, 20 days, no pretreatment, control 4.5±0.2): 6.6 ± 1.0 days | Antitumour effect after BN receptor blockade ([1]; RC-3095 200 μg i.v. 15 min before AN-215 150 nmol kg^-1): could be blocked by pretreatment with an excess of a bombesin antagonist; also recorded: non-significant growth inhibition of U-87MG glioblastomas | Growth inhibition after RC-3095 pretreatment [1, 4]: 22% | Tumour doubling time after RC-3095 pretreatment [1, 4]: 4.7 ± 02 days | Effect of treatment on binding characteristics of receptors for BN/GRP [2]: did not affect the binding characteristics | IC50 ([3]; U-87MG tumour membranes, AN-215 10^-6–10^-12 M, mean±s.e., read-out: IC50, inhibition of specific 125I-[Tyr4]BN binding): 4 ± 0.1 nM | Binding affinity to BN/GRP receptor protein ([3]; U-87MG tumours): high binding affinity
